# Experimental data taken from US12180160B1, “1-(naphthalen-2-yloxy)-3-(piperidin-1-yl)propan-2-ol as an eco-friendly insecticidal agent against Spodoptera littoralis (boisd.)” (priority 2023, dated 2024).
# Test system: Spodoptera littoralis larvae (2nd and 4th instars)
# Assay: Insecticidal bioassay screening (castor leaf dip)
# Format: in vivo
# Settings: for Toxic ratio: 72 h, fenoxycarb's LC50/compound's LC50 × 100; for LC50 (ppm): after 72 h of treatment
# Procedure: Five concentrations (200, 100, 50, 25, 12.5 ppm) were designed for this synthetic compound and the reference fenoxycarb compound as the dynamic ingredients based on ppm via diluting the commercial formulation.
# In this experiment, castor leaves are immersed in each of the previously prepared concentrations of the components for 10 seconds and then left to dry for 60 minutes. Larvae of the second and fourth instars of each checked strain are prepared with treated leaves in gauze-covered glass containers for 72 hrs. An untreated control is made in which leaves are dipped in triton x-100 and distilled water only. Then the preserved leaves were removed & fresh, untreated leaves were provided for 72 hours. Three replicates (10 larvae each) were checked for each concentration. Daily inspection was carried out for all treatments and mortality percentages were recorded 3 days (72 hours) after treatment. The average mortality percentage was corrected employing Abbott's formula. The corrected mortality rate for each of the previously synthesized compounds is statistically calculated according to Finney (1970). Through this rate, the corresponding concentration test lines (LDP lines) are assessed. Fifty and ninety percent mortality are determined, and the regression values for the checked products were previously evaluated.
SMILES,Toxic ratio (2nd instar larvae),Toxic ratio (4th instar larvae),"LC50 (Spodoptera littoralis, foliar) [µg/mL]",morphological effect on Spodoptera littoralis (FIGURE) (after administration of the compound),activity against Spodoptera littoralis (in words) (compared with reference insecticide fenoxycarb),LC50 (ppm) (2nd instar larvae of S. littoralis),LC50 (ppm) (4th instar larvae of S. littoralis)
"OC(COc1ccc2ccccc2c1)CN1CCCCC1 (stereo not drawn) [Compound 1, 1-(naphthalen-2-yloxy)-3-(piperidin-1-yl)propan-2-ol]",10.9,59.8,25,morphological malformations,active against Spodoptera littoralis,,
"CCOC(=O)NCCOc1ccc(Oc2ccccc2)cc1 [Fenoxycarb, reference compound]",100,1,,,,2.73,43.231
